Results on six compounds are retold here after patent US20040082757A1, “Echinocandin derivatives, pharmaceutical compositions containing same and use thereof as drugs” (priority 2001, published 2004).

Numbered stars: 1 amine (or outer) side, 2 acyl side, 3 side chain; on linkers, the order of the positions; unused ones are H or OH. Bridge positions count the residues as written; N and C are the ends. Square brackets hold non-standard residues; d marks the D form. Peptide text beside a SMILES is read from it. * marks the point of attachment. ξ: configuration not given here. ξhTyr(βξ-OH,3-OSO3H) = NC(C(=O)O)C(O)Cc1ccc(O)c(OS(=O)(=O)O)c1; ξOrn(4,5-diOH) = O=C(C(CC(O)C(O)N[*:3])N[*:1])[*:2]; X3 = CCCCCOc1ccc(-c2cc(-c3ccc(C(=O)*)cc3)no2)cc1; ξOrn(4ξ-OH) = O=C(C(CC(O)CN[*:3])N[*:1])[*:2]; ξPro(3ξ-OH,4ξ-Me) = CC1CNC(C(=O)O)C1O; X2 = NC(=O)CC(O)C(N[*:1])C(=O)[*:2]; X1 = O=C(C1C(O)C(O)CN1[*:1])[*:2]; ξT = CC(O)C(N)C(=O)O

System in one data set: not given
Experiment: not given
Conditions: not given
With `CC1CN2C(=O)C(C(O)CC(N)=O)NC(=O)C(C(O)Cc3ccc(O)c(OS(=O)(=O)O)c3)NC(=O)C3CCCN3C(=O)C(CO)NC(=O)C(N)CC(O)CNC(=O)C2C1O` (stereo not drawn) [Object Compound (3)] (H-[ξOrn(4ξ-OH)]SP[ξhTyr(βξ-OH,3-OSO3H)][X2][ξPro(3ξ-OH,4ξ-Me)]; lactam 1-C; configuration not given here), the melting point was 255 to 260 °C (dec.).
Consider `CC(O)C1NC(=O)C(N)CC(O)CNC(=O)C2C(O)C(C)CN2C(=O)C(C(O)CC(N)=O)NC(=O)C(C(O)Cc2ccc(O)c(OS(=O)(=O)O)c2)NC(=O)C2CCCN2C1=O` (stereo not drawn) [Object Compound (1)] (H-[ξOrn(4ξ-OH)]TP[ξhTyr(βξ-OH,3-OSO3H)][X2][ξPro(3ξ-OH,4ξ-Me)]; lactam 1-C; configuration not given here), for which the melting point is 250 to 260 °C (dec.).
The same measure, in the same setting: then `CC(O)C1NC(=O)C(N)CC(O)C(O)NC(=O)C2C(O)C(C)CN2C(=O)C(C(O)CC(N)=O)NC(=O)C(C(O)Cc2ccc(O)c(OS(=O)(=O)O)c2)NC(=O)C2C(O)C(O)CN2C1=O` (stereo not drawn) [Object Compound (2)] (H-[ξOrn(4,5-diOH)][ξT][X1][ξhTyr(βξ-OH,3-OSO3H)][X2][ξPro(3ξ-OH,4ξ-Me)]; lactam 1-C), with 215 to 220 °C (dec.).

A further data set concerns Candida albicans FP 633. The data set is described as follows: Antimicrobial activity test: antifungal susceptibility by microdilution method (NCCLS M27-A), MIC. The format is cell-based. To be noted: FP633, RPMI 1640, pH 7.0, 35° C., lowest concentration with no visible growth. The method, then: The antifungal susceptibility assays were performed by the microdilution method according to M27-A guidelines recommended by the National Committee for Clinical Laboratory Standards (NCCLS) to determine the MICs of the compounds. RPMI 1640 medium with L-glutamine, without sodium bicarbonate and buffered with 165 mM morpholinepropanesulfonic acid buffer (pH 7.0) was used as a test medium. Inoculum suspension of 10^6 CFU/ml were prepared by a hemocytometric procedure and diluted to obtain an inoculum size of approximately 0.5×10^3 to 2.5×10^3 CFU/ml. Microplates were incubated at 35° C., and readings were taken when good growth in the growth control. The MICs were defined as the lowest concentrations at which no visible growth was observed.
Turning to `CCCCCOc1ccc(-c2cc(-c3ccc(C(=O)NC4CC(O)C(O)NC(=O)C5C(O)C(C)CN5C(=O)C(C(O)CC(N)=O)NC(=O)C(C(O)Cc5ccc(O)c(OS(=O)(=O)[O-])c5)NC(=O)C5C(O)C(O)CN5C(=O)C(C(C)O)NC4=O)cc3)no2)cc1.[Na+]` (stereo not drawn) [Object Compound (9)], the MIC was below 0.02 µg/mL.
Same read-out and setting: then `CCCCCOc1ccc(-c2cc(-c3ccc(C(=O)NC4CC(O)CNC(=O)C5C(O)C(C)CN5C(=O)C(C(O)CC(N)=O)NC(=O)C(C(O)Cc5ccc(O)c(OS(=O)(=O)[O-])c5)NC(=O)C5CCCN5C(=O)C(CO)NC4=O)cc3)no2)cc1.[Na+]` (stereo not drawn) [Object Compound (10)] (X3-[ξOrn(4ξ-OH)]SP[ξhTyr(βξ-OH,3-OSO3H)][X2][ξPro(3ξ-OH,4ξ-Me)]; lactam 1-C; configuration not given here), with below 0.1 µg/mL; and `CCCCCOc1ccc(-c2cc(-c3ccc(C(=O)NC4CC(O)CNC(=O)C5C(O)C(C)CN5C(=O)C(C(O)CC(N)=O)NC(=O)C(C(O)Cc5ccc(O)c(OS(=O)(=O)[O-])c5)NC(=O)C5CCCN5C(=O)C(C(C)O)NC4=O)cc3)no2)cc1.[Na+]` (stereo not drawn) [Object Compound (8)] (X3-[ξOrn(4ξ-OH)]TP[ξhTyr(βξ-OH,3-OSO3H)][X2][ξPro(3ξ-OH,4ξ-Me)]; lactam 1-C; configuration not given here), with below 0.1 µg/mL.

What is called melting point is the temperature of the solid-liquid transition. As usually defined, the MIC is the smallest concentration in the dilution series that meets the test's criterion for growth inhibition. Low readings indicate greater potency, high ones weaker potency.
